The subject of test [1] is TNF-α. As to the kind of experiment: LPS stimulation of TNF production by U937 cells. In kind it is cell-based, human. The conditions noted are these: for inhibition at 1 µM / pIC50: Homo sapiens; for inhibition at 1 µM: U-937, @ 1.0 uM, read-out: U937 Cell % inhib @ conc. On the procedure: Fifty million cells in 100 ml media were induced to terminal monocytic differentiation by 24 hour incubation with 20 ng/ml phorbol 12-myristate 13-acetate (Sigma). The cells were washed by centrifugation (200×g for 5 min) and resuspended in 100 ml fresh medium. After 24-48 hours, the cells were harvested, centrifuged, and resuspended in culture medium at 2 million cells/ml.
Compounds were prepared as 10 mM stock solutions in DMSO and diluted in culture medium to yield a final DMSO concentration of 0.1% in the cell assay. LPS (E coli, 100 ng/ml final concentration) was then added at a volume of 0.02 ml. After 4 hour incubation at 37° C., the amount of TNF-α released in the culture medium was quantitated by ELISA. Inhibitory potency is expressed as IC50 (μM).
In vitro whole cell assay for measuring the ability of the compounds to inhibit TNF production in human U937 cells stimulated with LPS are shown in the column identified as: […]

Test [2] has as its target T1, human p38 kinase alpha (Homo sapiens, UniProt Q16539).
T1 construct: The coding region of the human p38a cDNA was obtained by PCR-amplification from RNA isolated from the human monocyte cell line THP.1; GST (N); made in house; host or cells: E. coli DH10B
As to the kind of experiment: p38 kinase in vitro assay, phosphorylation of biotinylated PHAS-I with gamma 32P-ATP. As to conditions: for pIC50: read-out: P38 alpha kinase IC50. In kind it is biochemical. Summed up:
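Radiometric filter-capture read-out: streptavidin plates trap biotin-PHAS-I labelled by activated (MKK6) human p38α from γ-32P-ATP. Buffer 25 mM HEPES pH 7.5, 10 mM magnesium acetate, 50 μM cold ATP; reactions 1 h or overnight at 30 °C; inhibitors 10-fold dilutions 100 to 0.001 μM, triplicates, 1% DMSO.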

Where [3] appears, read: read-out: P38 alpha kinase % inhib @ conc.
[4] abbreviates: U-937, TNF production, LPS-stimulated human U937 cells, read-out: U937 Cell IC50.

pIC50: −log10 of the molar value. Like-named read-outs stand apart in the source and are kept apart here.

By pIC50 is commonly meant the negative decadic logarithm of the IC50, by convention in mol/L.

T1 sequence (Q16539 whole entry): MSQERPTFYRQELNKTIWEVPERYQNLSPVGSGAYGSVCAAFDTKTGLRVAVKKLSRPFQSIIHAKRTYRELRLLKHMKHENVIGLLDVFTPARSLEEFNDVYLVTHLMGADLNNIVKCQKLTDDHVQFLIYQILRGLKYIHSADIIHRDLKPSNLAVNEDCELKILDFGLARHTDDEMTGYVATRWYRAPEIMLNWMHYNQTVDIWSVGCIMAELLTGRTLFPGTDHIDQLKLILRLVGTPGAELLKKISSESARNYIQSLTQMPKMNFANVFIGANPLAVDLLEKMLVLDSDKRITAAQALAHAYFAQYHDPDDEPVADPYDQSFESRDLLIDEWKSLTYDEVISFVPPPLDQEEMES

In the case of `O=C(NCc1[nH]nc(-c2ccc(F)cc2)c1-c1ccncc1)c1ccc(F)c(C(F)(F)F)c1` [Example B-0287], the inhibition at 1 µM in test [1] was 22%. Also, the pIC50 in test [2] is 5.40.
In the same order, the values of `C[C@@H](NS(=O)(=O)c1ccccc1C(F)(F)F)c1[nH]nc(-c2ccc(F)cc2)c1-c1ccncc1` [Example B-0458] are 70% and 7.48.
For the compound `O=C(NCc1[nH]nc(-c2ccc(F)cc2)c1-c1ccncc1)c1sc2ccccc2c1Cl` [Example B-0058], the inhibition at 1 µM in test [1] was 18%; in test [2] (setting [3]), 79%.
`O=C(NCc1[nH]nc(-c2ccc(F)cc2)c1-c1ccncc1)c1ccco1` [Example B-0209]: the inhibition at 1 µM in test [1] came out at 8%. Moreover, the negative logarithm of the IC50 (pIC50) in test [2] was 6.54.
In the same order, the values of `O=C(NCc1[nH]nc(-c2ccc(F)cc2)c1-c1ccncc1)c1ccccc1Cl` [Example B-0289] are 55% and 6.82.
Turning to `C[C@@H](NC(=O)c1ccc(I)cc1)c1[nH]nc(-c2ccc(F)cc2)c1-c1ccncc1` [Example B-0363], the inhibition at 1 µM in test [1] worked out at 25%. The negative-log IC50 (pIC50) in test [2] is 5.33.
For `Cc1noc(C)c1S(=O)(=O)NCCCc1[nH]nc(-c2ccc(F)cc2)c1-c1ccncc1` [Example B-1281], the “U937 Cell % inhib @ conc. (uM)” value in test [1] (@ 1.0 uM, TNF production, LPS-stimulated U937 cells) is 8.0% @ 1.0 uM.
For the compound `CC(C)=CC(=O)N[C@H](C)c1[nH]nc(-c2ccc(F)cc2)c1-c1ccncc1` [Example B-0370], in test [1], the inhibition at 1 µM was 28%. The pIC50 in test [2] is 6.19.
In the same order, the values of `C[C@@H](NS(=O)(=O)c1ccc(Cl)c(Cl)c1)c1[nH]nc(-c2ccc(F)cc2)c1-c1ccncc1` [Example B-0465] are 98% and 7.08.
Take `CCCCOc1ccc(S(=O)(=O)N[C@H](C)c2[nH]nc(-c3ccc(F)cc3)c2-c2ccncc2)cc1` [Example B-0456]: in test [1], the inhibition at 1 µM came out at 67%. Besides, the negative logarithm of the IC50 (pIC50) in test [2] was 5.74.
As to `O=S(=O)(/C=C\c1ccccc1)NCc1[nH]nc(-c2ccc(F)cc2)c1-c1ccncc1` [Example B-0119], in test [1] (setting [4]), the pIC50 was 5.56. The inhibition at 10 µM in test [2] (@ 10.0 uM, read-out: P38 alpha kinase % inhib @ conc.) is 89%.
Consider `N#Cc1cccc(C(=O)NCc2[nH]nc(-c3ccc(F)cc3)c2-c2ccncc2)c1` [Example B-0274], for which the inhibition at 1 µM in test [1] turned out to be 25%. Besides, in test [2], the pIC50 is 5.57.
In the same order, the values of `C[C@@H](NC(=O)c1ccccc1F)c1[nH]nc(-c2ccc(F)cc2)c1-c1ccncc1` [Example B-0522] are 75% and 6.82.
In the case of `CC(C)c1ccc(S(=O)(=O)NCc2[nH]nc(-c3ccc(F)cc3)c2-c2ccncc2)cc1` [Example B-0123], the pIC50 in test [1] (setting [4]) was less than 6.00. Also, in test [2] (setting [3]), the inhibition at 1 µM amounted to 59%.
For the compound `CCCNC(=O)NCc1[nH]nc(-c2ccc(F)cc2)c1-c1ccncc1` [Example B-0213], the inhibition at 1 µM in test [1] was determined as 39%. In addition, in test [2], the pIC50 is 6.51.
Consider `Cc1ccccc1S(=O)(=O)NCc1[nH]nc(-c2ccc(F)cc2)c1-c1ccncc1` [Example B-0245], for which the inhibition at 1 µM in test [1] came out at 24%.
Same read-out and setting: to `C[C@@H](NC(=O)c1cccc(C#N)c1)c1[nH]nc(-c2ccc(F)cc2)c1-c1ccncc1` [Example B-0499] belongs 37%; to `C[C@@H](NS(=O)(=O)c1cccc(Cl)c1)c1[nH]nc(-c2ccc(F)cc2)c1-c1ccncc1` [Example B-0462], 97%.
As for `O=S(=O)(NCc1[nH]nc(-c2ccc(F)cc2)c1-c1ccncc1)c1ccccc1Br` [Example B-0234], the inhibition at 1 µM in test [1] was determined as 68%.
Same read-out and setting: to `Cc1noc(C)c1C(=O)NCc1[nH]nc(-c2ccc(F)cc2)c1-c1ccncc1` [Example B-0304] belongs 28%; to `COc1ccc(NC(=O)N[C@H](C)c2[nH]nc(-c3ccc(F)cc3)c2-c2ccncc2)c(OC)c1` [Example B-0422], 40%.
Turning to `C[C@@H](NC(=O)c1ccc(F)cc1F)c1[nH]nc(-c2ccc(F)cc2)c1-c1ccncc1` [Example B-0524], in test [1], the inhibition at 1 µM was found to be 77%.
On the same count and under the same terms, the result for `O=S(=O)(NCc1[nH]nc(-c2ccc(F)cc2)c1-c1ccncc1)c1ccc(C(F)(F)F)cc1` [Example B-0237] reads 60%; that for `C[C@@H](NC(=O)c1ccccn1)c1[nH]nc(-c2ccc(F)cc2)c1-c1ccncc1` [Example B-0379], 24%.
On to `C[C@@H](NS(=O)(=O)c1ccc(Cl)cc1)c1[nH]nc(-c2ccc(F)cc2)c1-c1ccncc1` [Example B-0433], for which the inhibition at 1 µM in test [1] turned out to be 92%.
The same measure, in the same setting: to `C[C@@H](NS(=O)(=O)c1ccc2ccccc2c1)c1[nH]nc(-c2ccc(F)cc2)c1-c1ccncc1` [Example B-0440] belongs 63%; to `C[C@@H](NS(=O)(=O)c1cccc(Cl)c1Cl)c1[nH]nc(-c2ccc(F)cc2)c1-c1ccncc1` [Example B-0445], 83%.
Turning to `C[C@@H](NS(=O)(=O)c1ccccc1)c1[nH]nc(-c2ccc(F)cc2)c1-c1ccncc1` [Example B-0386], in test [1], the inhibition at 1 µM is 54%.
Still for that read-out and setting: to `Cc1noc(C)c1C(=O)N[C@H](C)c1[nH]nc(-c2ccc(F)cc2)c1-c1ccncc1` [Example B-0529] belongs 73%.
On to `Cc1ccc(C(=O)N[C@H](C)c2[nH]nc(-c3ccc(F)cc3)c2-c2ccncc2)cc1` [Example B-0494], for which the “U937 Cell % inhib @ conc.” value in test [1] (@ 1.0 uM) came out at 30.0% @ 1.0 uM.
`O=C(NCc1[nH]nc(-c2ccc(F)cc2)c1-c1ccncc1)c1cccs1` [Example B-0208]: in test [1] (setting [4]), the pIC50 is less than 6.00.
Consider `C[C@@H](NC(=O)N(C)c1ccccc1)c1[nH]nc(-c2ccc(F)cc2)c1-c1ccncc1` [Example B-0409], for which the inhibition at 1 µM in test [1] amounted to 30%.
The same measure, in the same setting: to `C[C@@H](NS(=O)(=O)c1cc(Cl)cc(Cl)c1)c1[nH]nc(-c2ccc(F)cc2)c1-c1ccncc1` [Example B-0464] belongs 91%.
In the case of `OCCn1ncc(-c2ccnc(NCc3ccc(F)cc3)c2)c1-c1ccc(F)cc1` [Example A-290, 5-(4-fluorophenyl)-4-[2-[[(4-fluorophenyl)methyl]amino]-4-pyridinyl]-1H-pyrazole-1-ethanol], the pIC50 in test [1] (U-937, LPS-stimulated U937 cells, read-out: U937 IC50) is 5.22.
Consider `Cc1ccc(-c2[nH]nc(C)c2-c2ccncc2)cc1` [Example A-5], for which, in test [1] (U-937, LPS-stimulated U937 cells, read-out: U937 Cell Assay IC50), the negative-log IC50 (pIC50) is 6.56.
As for `CCN(CC)C(=O)N[C@H](C)c1[nH]nc(-c2ccc(F)cc2)c1-c1ccncc1` [Example B-0420], the inhibition at 1 µM in test [1] worked out at 49%.
On the same count and under the same terms, to `C[C@@H](NC(=O)c1cccc(F)c1F)c1[nH]nc(-c2ccc(F)cc2)c1-c1ccncc1` [Example B-0518] belongs 64%; to `O=C(NCc1[nH]nc(-c2ccc(F)cc2)c1-c1ccncc1)c1cccs1` [Example B-0193], 6%; to `Cc1cccc(Cl)c1S(=O)(=O)N[C@H](C)c1[nH]nc(-c2ccc(F)cc2)c1-c1ccncc1` [Example B-0467], 77%.
On to `C[C@@H](NS(=O)(=O)/C=C/c1ccccc1)c1[nH]nc(-c2ccc(F)cc2)c1-c1ccncc1` [Example B-0388], for which, in test [1], the inhibition at 1 µM amounted to 36%.
Still for that read-out and setting: the result for `C[C@@H](NS(=O)(=O)Cc1ccccc1[N+](=O)[O-])c1[nH]nc(-c2ccc(F)cc2)c1-c1ccncc1` [Example B-0442] reads 91%.
Same read-out and setting: the result for `C[C@@H](NS(=O)(=O)c1ccccc1Br)c1[nH]nc(-c2ccc(F)cc2)c1-c1ccncc1` [Example B-0454] reads 80%; that for `C[C@@H](NS(=O)(=O)c1ccc(Br)cc1)c1[nH]nc(-c2ccc(F)cc2)c1-c1ccncc1` [Example B-0432], 89%.
